The text below walks through data of PMC12598805, “Crystal Structure–Activity Relationship of Some MeO Phenylacrylonitriles: Dual Antimicrobial–Cytotoxic Effects and in Silico Perspectives” (ChemistryOpen, 2025).

Converted amounts (≈) assume the structure as drawn. Read-outs that look alike come from different tables or passages of the source.

What all share (type): cell-based
Experiment [1] deals with Pseudomonas aeruginosa (ATCC 27853). Nature of the experiment: MBC by sub-culture from wells without growth. The conditions noted are these: ATCC27853, P.aeruginosa. As for the experimental part:
Pseudomonas aeruginosa (ATCC 27853) […]
ATCC: American Type Culture Collection; NRRL: Northern Regional Research Laboratory The compounds 2(a-c) obtained could only be completely solubilised with dimethyl sulphoxide (DMSO) and the highest possible stock solutions of 50 mg.mL-1 were prepared. […]
3.1. Determination of Minimum Inhibition Concentration (MIC)
The minimum inhibition concentration (MIC) values of the compounds 2(a-c) against the test bacteria used in the study were determined according to the broth microdilution method.[1-2] MHB or SDB was used as test medium and bacterial and yeast suspensions were prepared at 0.5 Mc Farland concentration for each test bacteria. Double layer serial dilutions were prepared in "U" type 96-well microtiter plates. Medium+bacteria suspensions containing only medium in the first row, medium+bacteria in the second row and the final concentrations of the synthesised substances in the other rows between 25 mg.mL-1 and […] were added to the wells with a final volume of 200
μL. Ampicillin, Kanamycin and Amphotericin B standard antibiotics were used as positive controls.
Bacteria were incubated at 37±0.1 °C and C. albicans at 30±0.1 °C for 24-48 hours and the lowest concentration without growth was determined as MIC. Tests were performed in two parallel runs and mean values were given as a result. In order to estimate “the minimum bactericidal/fungicidal concentrations (MBC/MFC) of the synthesised acrylonitrile derivatives “needed to indicate […] killing of the original inoculum,” 10 μl was taken from the wells with no observed growth and further sub-cultured onto their agar media (MHA and SDA for bacterial and fungal strains, respectively).[3] […]

The subject of experiment [2] is human lung carcinoma (A549, CCL‐185) cells. Description: Cytotoxicity, CCK8 cell viability. The conditions noted are these: for suppressive effect on cell proliferation / viability: 31.25 to 500 μM; for cell suppressive effect: concentrations of 31.25, 62.5, 125 and 250 μM; for IC50: Homo sapiens, read-out: Cytotoxic activity IC50. The source says:
(§1) We investigated the cytotoxic effects of acrylonitrile derivatives 2(a–c) on human lung carcinoma (A549, CCL‐185) cells purchased from American Culture Collection and human breast carcinoma (MCF‐7) cells purchased from Republic of Turkey Ministry of Agriculture and Forestry Şap Institute, (HUKUK, 00092502), In addition, mouse fibroblast cells (L929, CCL‐1) purchased from American Culture Collection were used to observe the effects of the compounds on healthy cells. In 25 T Flask, A549 cells were grown in dulbecco's modified eagle's medium, MCF‐7, and L929 cells were grown in eagle's minimum essential medium (EMEM), 10% fetal bovine serum and 1% Penicillin‐Streptomycin at 37 °C in a 5% CO2 and 100% humidified incubator. Cell proliferation was checked every day. Cells were taken into the experiment when the cell density reached 70% to 80%. (See Supporting Information for experimental preparation of biological studies).
(§2) The compounds 2a, 2b, and 2c were dissolved in 99.8% Dimethyl sulfoxide (DMSO) respectively, as
(§3) 10 mM main stock. To prepare the doses of acrylonitrile compounds used in the experiment to be
(§4) applied to the cells, five different concentrations of 31.25; 62.5; 125; 250 and 500 μM were prepared
(§5) by diluting the main stock solutions (10 mM) with the medium selected according to the cells. 5-
(§6) Fluorouracil (5-FU) was selected as a positive control in the study. After the 5-FU main stock solution
(§7) was dissolved with DMSO to be 10 mM, the concentrations to be used were diluted with the selected
(§8) media and made ready for the experimental plan. The concentrations used for 5-FU were prepared in
(§9) the same doses used for acrylonitrile derivatives. For the negative control group, groups containing
(§10) only media and no substance were used. Prepared acrylonitrile compounds and 5-FU concentrations
(§11) were added to the wells in three replicates for each dose, and their effects on cell viability at 24 and 48
(§12) Trypan blue solution (Gibco, 1525061) was used to distinguish between living and dead cells in the
(§13) study. Trypan blue passes uncontrollably through the membrane of dead cells that have lost their cell
(§14) membrane integrity and stains the cell blue. Living cells, on the other hand, are not stained because
(§15) Live cell counts were performed using trypan blue using a
(§16) cell counter (Logos Luna II).
(§17) In order to detach the cells adhering to the flasks from the bottom, 500 μL of 0.25% Trypsin-EDTA
(§18) (Gibco, 15400054) solution was added and treated for five minutes.
(§19) detach from the bottom under an inverted microscope (Zeiss Primovert, Germany), medium containing
(§20) 10% FBS was added. After centrifugation at 300 g for 5 minutes and discarding the medium, 1 mL of
(§21) medium was added and the cells were seeded into 96-well culture dishes as 1x10^4 cells in 100 μL per
(§22) Cell Counting Kit 8 (CCK8; Medchem, 146436) was used to determine cell viability. After adding 20 μL
(§23) of CCK8 solution to each well in the dark, 96-well culture dishes were wrapped with aluminum foil and
(§24) kept in a CO2 incubator at 37 °C for 2 hr. Then, it was automatically read with a microplate reader
(§25) (Chromate) at 450 and 630 nm wavelengths. The following formula was used to determine cell
(§26) % Viability = (Sample Well−Blank) (Negative Control−Blank)×100 (1)
(§27) The half-maximal inhibitory concentration (IC50) was calculated as 50% cell death causing dose
(§28) compared to the control group. All data are given as the mean percent fraction of control ± SEM.
(§29) Statistical analysis was done by one-way analysis of variance (ANOVA), followed by Tukey’s multiple
(§30) comparison tests. IBM SPSS Statistics 22 was used to utilize statistical analysis. […]

For experiment [3], the system named is human breast carcinoma (MCF‐7) cells. Nature of the experiment: Cytotoxicity, CCK8 cell viability. The conditions noted are these: for IC50: Homo sapiens, MCF7, read-out: Cytotoxic activity IC50.
Description: as §1, §2, §3, §4, §5, §6, §7, §8, §9, §10, §11, §12, §13, §14, §15, §16, §17, §18, §19, §20, §21, §22, §23, §24, §25, §26, §27, §28, §29, §30

One may read the MBC as the smallest concentration meeting the test's criterion for killing. One may read the IC50 as the concentration that gives 50% inhibition. Consider `COc1ccc(C=C(C#N)c2ccccc2)cc1` [2a, 3‐(4‐methoxyphenyl)‐2‐phenylacrylonitrile], for which the MBC in experiment [1] was found to be 5 mg/mL (≈ 21.3 mM). Also, the “decrease in cell viability” value in experiment [2] (A549, 24 h, 500 μM) is on record as 20%; in experiment [2] (A549, 48 h, 250 μM), 8%; in experiment [2] (A549, 48 h, 500 μM) it was 94%; in experiment [3] (MCF‐7, 24 h, 31.25 μM), 32%; in experiment [3] (MCF‐7, 24 h, 62.5 μM), 32%; in experiment [3] (MCF‐7, 24 h, 125 μM), 48%. Also, the “decrease in cell viability” value in experiment [3] (MCF‐7, 24 h, 250 μM) was 75%; in experiment [3] (MCF‐7, 24 h, 500 μM), 92%; in experiment [3] (MCF‐7, 48 h, 31.25 μM), 44%; in experiment [3] (MCF‐7, 48 h, 62.5 μM) it was 60%; in experiment [3] (MCF‐7, 48 h, 125 μM), 60%; in experiment [3] (MCF‐7, 48 h, 250 μM), 60%. In addition, the “decrease in cell viability” value in experiment [3] (MCF‐7, 48 h, 500 μM) was 99%. For the same compound, in experiment [2] (A549, 24 h), the “suppressive effect on cell proliferation / viability” value was “did not show any cytotoxic activity”. For the same compound, in experiment [2] (A549, 24 h), the cell suppressive effect result is “no cell suppressive effect”. For the same compound, the half-maximal inhibitory concentration (IC50) is greater than 500 µM in experiment [2] (A549, 24 h); 373 µM in experiment [2] (A549, 48 h); 131 µM in experiment [3] (MCF‐7, 24 h); 44 µM in experiment [3] (MCF‐7, 48 h).
In experiment [1], `COc1ccc(/C=C(\C#N)c2ccc(F)cc2)cc1` [2b] returned an MBC of 12.5 mg/mL (≈ 49.4 mM). Moreover, the “decrease in cell viability” value in experiment [2] (A549, 24 h, 500 μM) is 9%; in experiment [2] (A549, 48 h, 500 μM) it was 71%; in experiment [3] (MCF‐7, 24 h, 31.25 μM), 23%; in experiment [3] (MCF‐7, 24 h, 62.5 μM) it was 26%; in experiment [3] (MCF‐7, 24 h, 125 μM), 17%; in experiment [3] (MCF‐7, 24 h, 250 μM), 23%. Also, the “decrease in cell viability” value in experiment [3] (MCF‐7, 24 h, 500 μM) came out at 82%; in experiment [3] (MCF‐7, 48 h, 31.25 μM), 49%; in experiment [3] (MCF‐7, 48 h, 62.5 μM) it was 68%; in experiment [3] (MCF‐7, 48 h, 125 μM) it was 71%; in experiment [3] (MCF‐7, 48 h, 250 μM), 86%; in experiment [3] (MCF‐7, 48 h, 500 μM), 91%. In addition, the cell suppressive effect entry in experiment [2] (A549, 24 h) was “no cell suppressive effect”; in experiment [2] (A549, 48 h), “no cell suppressive effect”. Also, the IC50 in experiment [2] (A549, 24 h) is greater than 500 µM; in experiment [2] (A549, 48 h), 422 µM; in experiment [3] (MCF‐7, 24 h), 363 µM; in experiment [3] (MCF‐7, 48 h), 34 µM.
On to `COc1ccc(/C=C(\C#N)c2cc(C(F)(F)F)cc(C(F)(F)F)c2)cc1` [2c], for which the MBC in experiment [1] is 12.5 mg/mL (≈ 33.7 mM). Besides, the “suppressive effect on cell proliferation / viability” value in experiment [2] (A549, 24 h) is on record as “no suppressive effect”. In addition, the “decrease in cell viability” value in experiment [2] (A549, 48 h, 500 μM) is reported as 56%; in experiment [3] (MCF‐7, 24 h, 31.25 μM), 9%; in experiment [3] (MCF‐7, 24 h, 62.5 μM) it was 10%; in experiment [3] (MCF‐7, 24 h, 125 μM), 11%; in experiment [3] (MCF‐7, 24 h, 250 μM), 17%; in experiment [3] (MCF‐7, 24 h, 500 μM), 69%. Also, the “decrease in cell viability” value was determined as 25% in experiment [3] (MCF‐7, 48 h, 31.25 μM); 27% in experiment [3] (MCF‐7, 48 h, 62.5 μM); 26% in experiment [3] (MCF‐7, 48 h, 125 μM); 42% in experiment [3] (MCF‐7, 48 h, 250 μM); 85% in experiment [3] (MCF‐7, 48 h, 500 μM). For the same compound, the IC50 in experiment [2] (A549, 24 h) is greater than 500 µM; in experiment [2] (A549, 48 h), 473 µM; in experiment [3] (MCF‐7, 24 h), 409 µM; in experiment [3] (MCF‐7, 48 h), 294 µM.
